In ChEMBL document CHEMBL5247653, “Discovery of Clinical Candidate ACT-777991, a Potent CXCR3 Antagonist for Antigen-Driven and Inflammatory Pathologies” (J Med Chem, 2023):
In brackets after ≈: the same amount, converted by molar mass. Activity calls are given as the source filed them. The calls are words filed in the database; no cut-off is given here.

Columns and labels:
[1] = Metabolic stability in human liver microsomes assessed as intrinsic clearance at 1 uM and measured upto 15 mins in presence of NADPH regenerating system by LC-MS/MS analysis; type: ADME, Microsome; conditions: read-out: CLH
CYP3A4 = CYP3A4 (Homo sapiens, UniProt P08684); test: […] recombinant human CYP3A4 mediated drug metabolism in human liver microsomes assessed as intrinsic clearance at 1 uM incubated for 45 mins in presence of NADPH regenerating system by LC-MS/MS analysis; type: ADME, Microsome; conditions: read-out: CLH
[2] = Metabolic stability in human hepatocytes assessed as intrinsic clearance per 10^6 cells at 1 uM by LC-MS/MS analysis; type: ADME, cell-based, Hepatocyte
[3] = Unbound clearance in Wistar rat plasma at 0.5 mg/kg, iv; type: ADME, organism-based; conditions: in vivo
[4] = Total clearance in Beagle dog plasma at 1 mg/kg, iv; type: ADME, organism-based, Canis lupus familiaris
[5] = target: T1, C-X-C chemokine receptor type 3 (Homo sapiens, UniProt P49682); test: Antagonist activity at human CXCR3 expressed in CHO-K1 cells assessed as reduction in CXCL9 induced calcium flux by FLIPR method; type: cell-based
T1 sequence (P49682 whole entry): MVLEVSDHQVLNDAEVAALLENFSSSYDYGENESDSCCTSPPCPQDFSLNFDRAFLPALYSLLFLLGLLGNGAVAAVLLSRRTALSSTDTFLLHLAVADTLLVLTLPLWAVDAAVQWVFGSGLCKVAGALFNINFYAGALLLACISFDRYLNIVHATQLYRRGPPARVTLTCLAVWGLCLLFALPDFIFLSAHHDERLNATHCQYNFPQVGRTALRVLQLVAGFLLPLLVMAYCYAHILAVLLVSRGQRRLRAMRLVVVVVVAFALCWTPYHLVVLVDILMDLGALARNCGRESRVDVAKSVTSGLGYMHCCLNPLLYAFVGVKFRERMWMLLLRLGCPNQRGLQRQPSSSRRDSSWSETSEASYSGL

[6] = target: T1, C-X-C chemokine receptor type 3; test: Antagonist activity at human CXCR3 expressed in CHO-K1 cells assessed as reduction in CXCL10 induced calcium flux by FLIPR method; type: cell-based
[7] = target: T2, C-X-C chemokine receptor type 3 (Mus musculus, UniProt O88410); test: Antagonist activity at mouse CXCR3 expressed in CHO-K1 cells assessed as reduction in CXCL10 induced calcium flux by FLIPR method; type: cell-based
T2 sequence (O88410 whole entry): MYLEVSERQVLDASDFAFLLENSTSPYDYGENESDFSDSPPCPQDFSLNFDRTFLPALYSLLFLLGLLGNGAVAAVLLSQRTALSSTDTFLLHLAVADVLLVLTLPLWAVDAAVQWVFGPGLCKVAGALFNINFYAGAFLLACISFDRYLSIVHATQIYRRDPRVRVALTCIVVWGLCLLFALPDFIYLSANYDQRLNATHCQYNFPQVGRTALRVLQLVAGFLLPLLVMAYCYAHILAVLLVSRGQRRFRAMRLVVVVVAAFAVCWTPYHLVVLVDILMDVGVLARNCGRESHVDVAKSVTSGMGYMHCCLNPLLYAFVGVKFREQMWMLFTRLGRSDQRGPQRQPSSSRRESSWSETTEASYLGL

[8] = target: C-X-C chemokine receptor type 3 (Rattus norvegicus, UniProt Q9JII9); test: Antagonist activity at rat CXCR3 expressed in CHO-K1 cells assessed as reduction in CXCL10 induced calcium flux by FLIPR method; type: cell-based
[9] = target: C-C chemokine receptor type 5 (Homo sapiens) (UniProt P51681); test: Binding affinity to CCR5 (unknown origin) at 10 uM by radioligand binding assay
[10] = target: C-X-C chemokine receptor type 5 (Homo sapiens) (UniProt P32302); test: Binding affinity to CXCR5 (unknown origin) at 10 uM by radioligand binding assay
Mus musculus = test: Antiinflammatory activity against LPS-induced DBA/1 mouse model assessed as reduction in CXCR3+ CD8+ T cells infiltration into BAL at 0.006 to 2 microg/g, po bid preincubated for 3 days followed by LPS stimulation for 30 mins and measured after 3 days by flow cytometry; type: functional, organism-based; conditions: T-cell, dose 0.006-2 µg/g, time 6.0 day
[11] = Cmax in LPS-induced DBA/1 mouse plasma at 0.006 microg/g, po bid preincubated for 3 days followed by LPS stimulation for 30 mins and measured after 72 hrs by flow cytometry; type: ADME, organism-based; parameters: dose 0.006 µg/g, time 6 day, route po; conditions: 0.006 µg/g
[12] = Cmin in LPS-induced DBA/1 mouse plasma at 0.06 microg/g, po bid preincubated for 3 days followed by LPS stimulation for 30 mins and measured after 72 hrs by flow cytometry; type: ADME, organism-based; conditions: dose 0.06 µg/g, time 6 day, read-out: Cmin
[13] = Solubility of compound in FaSSIF at 37 degreeC; type: ADME
[14] = Solubility of compound in FeSSIF at 37 degreeC; type: ADME
[15] = Apparent permeability across apical to basolateral side in dog MDCK-II cells; type: ADME, cell-based, Canis lupus familiaris
Cytochrome P450 3A4 = Cytochrome P450 3A4 (Homo sapiens, UniProt P08684); test: Time dependent inhibition of CYP3A4 (unknown origin); type: ADME
[16] = Induction of CYP3A4 mRNA upregulation in human hepatocytes upto 10 uM; type: ADME, cell-based, Hepatocyte
[17] = target: ATP-dependent translocase ABCB1 (Homo sapiens, UniProt P08183); test: Inhibition of human P-gp in dog MDCKII-MDR1 cells; type: ADME, cell-based
[18] = target: Solute carrier organic anion transporter family member 1B1 (Homo sapiens, UniProt Q9Y6L6); test: Inhibition of human OATP1B1; type: ADME
[19] = Metabolic stability in rat liver microsomes assessed as M3 metabolite formation at 1 uM and measured upto 15 mins in presence of NADPH regenerating system by LC-MS/MS analysis; type: ADME, Microsome; conditions: 0.25 h
[20] = Metabolic stability in rat hepatocyte assessed as M3 metabolite formation at 1 uM and measured upto 15 mins in presence of NADPH regenerating system by LC-MS/MS analysis; type: ADME, cell-based; conditions: hepatocytes, 0.25 h
[21] = Protein binding in dog plasma assessed as fraction unbound at 0.1 to 300 ug/ml using 14C-labeled ligand by rapid equilibrium dialysis; type: ADME, cell-free, Canis lupus familiaris; conditions: at 0.1 to 300 µg/mL, dose 0.1-300 µg/ml
[22] = AUC (0 to last) in Wistar rat at 3 mg/kg,iv or 3 mg/kg, po; type: ADME, organism-based; parameters: dose 3 mg/kg, route iv; conditions: in vivo
[23] = Cmax in Wistar rat at 3 mg/kg,iv or 3 mg/kg, po; type: ADME, organism-based; parameters: dose 3 mg/kg, route iv; conditions: in vivo
[24] = AUC (0 to last) in Beagle dog at 2.5 mg/kg,iv or 2.5 mg/kg, po; type: ADME, organism-based, Canis lupus familiaris; parameters: dose 2.5 mg/kg, route iv; conditions: in vivo
[25] = Half life in Beagle dog at 2.5 mg/kg,iv or 2.5 mg/kg, po; type: ADME, organism-based, Canis lupus familiaris; conditions: in vivo
[26] = Clearance in Cynomolgus monkey at 1.0 mg/kg,iv or 1.25 mg/kg, po; type: ADME, organism-based, Macaca fascicularis; conditions: in vivo
[27] = In vivo inhibition of hERG in iv dosed dog assessed as increase in QTc interval; type: toxicity, organism-based, Canis lupus familiaris
[28] = In vivo inhibition of hERG in guinea pig assessed as increase in QTc interval at 27 ug/ml, iv; type: toxicity, organism-based, Cavia porcellus; conditions: at 27 µg/mL
NIH3T3 = test: Phototoxicity in BALB/c mouse 3T3 cells upto 100 ug/ml in presence of irradiation; type: toxicity, cell-based; conditions: dose < 100 µg/ml

C-C chemokine receptor type 5 (Homo sapiens), sequence (P51681 whole entry, looked up): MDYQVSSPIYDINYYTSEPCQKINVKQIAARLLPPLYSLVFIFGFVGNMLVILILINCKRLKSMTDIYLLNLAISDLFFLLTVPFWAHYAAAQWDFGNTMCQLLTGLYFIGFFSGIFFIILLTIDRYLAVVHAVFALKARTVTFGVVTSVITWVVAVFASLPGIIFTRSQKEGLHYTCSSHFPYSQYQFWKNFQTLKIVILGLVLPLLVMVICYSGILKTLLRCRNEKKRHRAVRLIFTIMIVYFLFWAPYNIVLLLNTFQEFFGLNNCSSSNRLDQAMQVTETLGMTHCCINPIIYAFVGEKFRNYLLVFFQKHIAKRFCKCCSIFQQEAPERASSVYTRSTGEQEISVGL
C-X-C chemokine receptor type 3 (Rattus norvegicus, UniProt Q9JII9), sequence (Q9JII9 whole entry): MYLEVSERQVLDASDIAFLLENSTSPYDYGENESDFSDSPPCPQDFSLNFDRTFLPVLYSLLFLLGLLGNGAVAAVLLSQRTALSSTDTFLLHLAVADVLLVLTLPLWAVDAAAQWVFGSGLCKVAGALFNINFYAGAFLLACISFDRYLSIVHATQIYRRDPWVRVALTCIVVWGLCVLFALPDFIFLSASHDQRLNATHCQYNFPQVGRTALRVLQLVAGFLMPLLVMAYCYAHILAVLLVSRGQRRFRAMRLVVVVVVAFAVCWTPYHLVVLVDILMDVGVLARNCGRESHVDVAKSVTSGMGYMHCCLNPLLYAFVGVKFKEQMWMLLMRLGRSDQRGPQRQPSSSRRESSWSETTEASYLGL
CYP3A4, sequence (P08684 whole entry): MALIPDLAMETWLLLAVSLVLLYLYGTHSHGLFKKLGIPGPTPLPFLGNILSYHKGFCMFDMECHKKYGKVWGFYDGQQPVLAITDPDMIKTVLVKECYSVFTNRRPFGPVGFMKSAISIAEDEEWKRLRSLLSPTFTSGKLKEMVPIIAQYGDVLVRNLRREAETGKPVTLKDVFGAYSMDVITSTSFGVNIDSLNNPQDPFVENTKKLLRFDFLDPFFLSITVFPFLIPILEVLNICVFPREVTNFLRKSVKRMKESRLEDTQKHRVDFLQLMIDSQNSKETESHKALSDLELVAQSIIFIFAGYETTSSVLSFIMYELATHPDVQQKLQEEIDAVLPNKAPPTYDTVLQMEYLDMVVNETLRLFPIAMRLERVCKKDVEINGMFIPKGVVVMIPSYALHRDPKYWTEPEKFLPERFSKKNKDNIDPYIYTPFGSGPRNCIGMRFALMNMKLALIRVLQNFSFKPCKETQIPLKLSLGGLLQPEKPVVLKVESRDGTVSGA
Cytochrome P450 3A4, sequence (P08684 whole entry): as above
ATP-dependent translocase ABCB1, sequence (P08183 whole entry): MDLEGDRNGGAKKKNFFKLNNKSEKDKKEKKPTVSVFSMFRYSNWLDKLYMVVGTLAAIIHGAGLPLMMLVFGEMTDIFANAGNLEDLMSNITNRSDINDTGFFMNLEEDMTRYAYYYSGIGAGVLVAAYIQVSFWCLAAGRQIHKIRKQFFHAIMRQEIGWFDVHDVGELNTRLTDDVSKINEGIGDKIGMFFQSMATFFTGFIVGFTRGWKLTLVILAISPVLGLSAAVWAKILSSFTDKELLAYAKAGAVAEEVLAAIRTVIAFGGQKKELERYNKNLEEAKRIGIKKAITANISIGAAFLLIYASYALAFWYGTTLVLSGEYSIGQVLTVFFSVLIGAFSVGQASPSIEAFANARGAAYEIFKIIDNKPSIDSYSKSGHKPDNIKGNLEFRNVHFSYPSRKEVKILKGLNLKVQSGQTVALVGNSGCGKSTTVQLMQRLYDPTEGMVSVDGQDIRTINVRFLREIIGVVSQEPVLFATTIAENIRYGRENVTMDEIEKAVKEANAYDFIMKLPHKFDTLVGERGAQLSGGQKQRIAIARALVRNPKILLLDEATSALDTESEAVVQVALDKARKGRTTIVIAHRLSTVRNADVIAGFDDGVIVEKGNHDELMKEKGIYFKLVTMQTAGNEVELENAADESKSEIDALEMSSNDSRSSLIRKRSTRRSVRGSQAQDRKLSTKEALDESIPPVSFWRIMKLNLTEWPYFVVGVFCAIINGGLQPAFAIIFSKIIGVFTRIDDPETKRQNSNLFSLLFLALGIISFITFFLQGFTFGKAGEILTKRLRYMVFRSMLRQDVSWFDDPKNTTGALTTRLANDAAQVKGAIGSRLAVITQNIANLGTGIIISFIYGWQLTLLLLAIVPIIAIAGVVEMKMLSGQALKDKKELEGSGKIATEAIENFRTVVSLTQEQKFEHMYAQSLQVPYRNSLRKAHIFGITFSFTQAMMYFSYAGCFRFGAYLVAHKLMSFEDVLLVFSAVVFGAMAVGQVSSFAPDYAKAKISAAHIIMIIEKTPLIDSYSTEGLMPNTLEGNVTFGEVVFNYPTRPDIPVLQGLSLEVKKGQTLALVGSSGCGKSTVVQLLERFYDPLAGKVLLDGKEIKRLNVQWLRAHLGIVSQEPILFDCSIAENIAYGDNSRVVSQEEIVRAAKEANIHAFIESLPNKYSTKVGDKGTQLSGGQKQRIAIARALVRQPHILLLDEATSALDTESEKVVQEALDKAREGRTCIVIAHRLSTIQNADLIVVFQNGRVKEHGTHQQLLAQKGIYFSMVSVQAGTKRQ
C-X-C chemokine receptor type 5 (Homo sapiens), sequence (P32302 whole entry): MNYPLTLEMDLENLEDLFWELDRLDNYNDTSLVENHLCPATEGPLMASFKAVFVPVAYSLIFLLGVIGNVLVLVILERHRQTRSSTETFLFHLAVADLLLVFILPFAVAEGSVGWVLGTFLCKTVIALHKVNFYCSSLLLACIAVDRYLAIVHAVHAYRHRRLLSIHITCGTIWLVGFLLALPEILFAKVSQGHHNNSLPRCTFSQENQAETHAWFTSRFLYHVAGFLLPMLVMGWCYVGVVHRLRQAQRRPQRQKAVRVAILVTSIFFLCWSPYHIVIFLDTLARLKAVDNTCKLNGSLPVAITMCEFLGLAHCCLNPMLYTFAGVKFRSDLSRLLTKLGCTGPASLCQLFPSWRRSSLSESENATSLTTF
Solute carrier organic anion transporter family member 1B1, sequence (Q9Y6L6 whole entry): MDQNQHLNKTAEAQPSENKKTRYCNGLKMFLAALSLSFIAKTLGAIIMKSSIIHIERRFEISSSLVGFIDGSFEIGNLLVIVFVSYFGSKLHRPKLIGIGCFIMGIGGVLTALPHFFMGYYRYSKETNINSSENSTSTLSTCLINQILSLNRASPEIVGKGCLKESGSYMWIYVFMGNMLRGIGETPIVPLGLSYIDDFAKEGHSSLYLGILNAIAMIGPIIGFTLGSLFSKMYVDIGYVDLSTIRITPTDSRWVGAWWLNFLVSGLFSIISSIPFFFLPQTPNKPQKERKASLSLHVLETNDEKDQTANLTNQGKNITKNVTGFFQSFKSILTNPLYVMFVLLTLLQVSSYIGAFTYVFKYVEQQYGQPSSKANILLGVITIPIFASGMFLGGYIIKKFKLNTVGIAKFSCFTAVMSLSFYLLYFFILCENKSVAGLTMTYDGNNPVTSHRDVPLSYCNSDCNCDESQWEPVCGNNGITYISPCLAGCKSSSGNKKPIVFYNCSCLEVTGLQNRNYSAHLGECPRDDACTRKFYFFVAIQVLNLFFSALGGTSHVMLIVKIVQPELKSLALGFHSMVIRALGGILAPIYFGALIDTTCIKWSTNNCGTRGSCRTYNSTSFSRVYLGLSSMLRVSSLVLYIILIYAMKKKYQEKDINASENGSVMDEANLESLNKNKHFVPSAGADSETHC

`Cc1ncn(CC(=O)N2CCN(c3sc(C(F)(F)F)nc3-c3cnc(C(F)(F)F)nc3)C[C@H]2CCO)n1` showed a microsomal CLint at 1 µM [1] of less than 10 µL/min/mg, a microsomal CLint at 1 µM (CYP3A4) of less than 0.04 µL/min/mg and a CLH [2] of less than 2 µL/min/mg. The CL free [3] was 156 mL/min/kg, the clearance [4] was 5 mL/min/kg and the IC50 [5] was 3.3 nM. The IC50 [6] was 3.2 nM, the IC50 [7] was 1.5 nM and the IC50 [8] was 2.2 nM. For the same compound, the Activity [9] was “inactive”, the Activity [10] was “inactive” and the Activity (Mus musculus) was “Dose-Dependent Effect”. For the same compound, the Cmax [11] was 42 ng/mL, the concentration at 72 h [12] was 267 ng/mL and the solubility [13] was 718 µg/mL (≈ 1300 µM). The solubility [14] was 1250 µg/mL (≈ 2270 µM), the Papp A→B [15] was 1.5 ×10⁻⁶ cm/s and the IC50 (Cytochrome P450 3A4) was greater than 50000 nM. For the same compound, the Activity [16] was “Not Active”, the “inhibition (INH)” value [17] was “Not Active” and the “inhibition (INH)” value [18] was “Not Active”. For the same compound, the Stability [19] was “Unstable”, the Stability [20] was “Unstable” and the fraction unbound [21] was 0.48. For the same compound, the AUC(0-t) [22] was 4210 ng·h/mL, the Cmax [23] was 910 ng/mL and the AUC(0-t) [24] was 3910 ng·h/mL. For the same compound, the half-life [25] was 5.3 h, the clearance [26] was 5.3 mL/min/kg and the “inhibition (INH)” value [27] was “Toxic”. For the same compound, the “inhibition (INH)” value [28] was “Toxic” and the Activity (NIH3T3) was “Non-Toxic”.
